Measurements reported in the NIST ThermoML archive (doi:10.1016/j.jct.2006.03.003).
Numbers after ± are expanded uncertainties.

Experiments:
[1] = 298.15 K; 101.33 kPa; Liquid
[2] = xn = mol fraction of the nth substance listed; details: 298.15 K; 101 kPa; Liquid; x1 = 0.61

Row | Structure (SMILES) | mass density [1] [kg/m3] | mass density [2] [kg/m3]
1 | CC(C)=O [acetone] | 784.65 ± 0.31 | –
2 | CCC(C)=O [butanone] | 799.75 ± 0.29 | –
3 | COC(F)(F)C(F)(C(F)(F)F)C(F)(F)F [methyl nonafluoroisobutyl ether] + COC(F)(F)C(F)(F)C(F)(F)C(F)(F)F | – | 1516.5 ± 1.8
4 | CCC(=O)CC [pentan-3-one] | 809.09 ± 0.28 | –
